Assay results from ChEMBL document CHEMBL5528025, “Design, synthesis and biological evaluation of carbamate derivatives incorporating multifunctional carrier scaffolds as pseudo-irreversible cholinesterase inhibitors for the treatment of Alzheimer's disease” (Eur J Med Chem, 2024).
pIC50: −log10 of the molar value. Active and inactive are the calls of the source. The rule behind the calls is not given here.

Legend:
Acetylcholinesterase [1] = biological target: T1, Acetylcholinesterase (Homo sapiens, UniProt P22303)
Description: Inhibition of human erythrocyte AChE incubated for 10 mins

Cholinesterase [2] = biological target: T2, Cholinesterase (Homo sapiens, UniProt P06276)
Description: Inhibition of human serum BuChE using butyrylthiocholine iodide as substrate incubated for 10 mins followed by substrate addition and measured after 10 mins by DTNB reagent based Ellman's method

PC-12 [3] = test: (§1) Neuroprotective activity against H2O2-induced rat PC-12 cells assessed as protection against H2O2-induced apoptosis by measuring live cells at 10 uM pretreated for 1 hr followed by H2O2 addition and measured after 24 hrs by Annexin V-FITC/PI staining based flow cytometry analysis (reference value: 63.2%); format: functional; details: time 25 hrs
PC-12 [4] = test: as §1, with “late apoptotic” for “live”, “7.97%)” for “63.2%)”; format: functional; details: time 25 hrs
[5] = Cytotoxicity against rat PC-12 cells assessed as cell viability at 10 uM incubated for 24 hrs by CCK-8 assay relative to control; format: toxicity, cell-based; details: read-out: Activity
BV-2 [6] = test: Cytotoxicity against mouse BV-2 cells assessed as reduction in cell viability at 5 uM incubated for 24 hrs by CCK-8 assay; format: toxicity, cell-based; details: bv-2, 24 h
BV-2 [7] = test: Antineuroinflammatory activity in LPS-induced mouse BV-2 cells assessed as increase in IL-4 level at 1.25 to 5 uM incubated for 24 hrs by ELISA; format: functional, cell-based; details: dose 1.25-5 µM
PC-12 [8] = test: Inhibition of H2O2 induced ROS production in rat PC-12 cells assessed as reduction in intracellular ROS level at 10 uM pretreated for 1 hr followed by H2O2 stimulation and measured after 24 hrs by confocal microscopic analysis; format: functional, cell-based; details: time 25.0 hrs
Acetylcholinesterase [9] = biological target: T1, Acetylcholinesterase; test: Pseudo-irreversible inhibition of human erythrocyte AChE at 4 times IC50 preincubated for 20 mins followed by dialysis and measured after 12 hrs; format: cell-based
Cholinesterase [10] = biological target: T2, Cholinesterase; test: Pseudo-irreversible inhibition of human serum BuChE using butyrylthiocholine iodide as substrate at 4 times IC50 preincubated for 20 mins followed by dialysis and measured after 12 hrs by DTNB reagent based Ellman's method
[11] = Acute toxicity in ICR mouse assessed as aberrant behavior at 100 to 500 mg/kg, ip measured after 14 days; format: organism-based; details: in vivo, 336 h, dose 100-500 mg/kg, time 14 day
[12] = Acute toxicity in ICR mouse assessed as abnormal dietary patterns at 100 to 500 mg/kg, ip measured after 14 days; format: organism-based; details: in vivo, 336 h, dose 100-500 mg/kg, time 14 day
[13] = Acute toxicity in ICR mouse assessed as reduction in body weight at 100 to 500 mg/kg, ip measured after 2 days; format: organism-based; details: in vivo, 48 h, dose 100-500 mg/kg, time 2 day
[14] = Acute toxicity in ICR mouse assessed as histopathological change in heart at 100 to 500 mg/kg, ip measured after 14 days by H and E staining based analysis; format: organism-based; details: in vivo, 336 h, dose 100-500 mg/kg, time 14 day
[15] = Acute toxicity in ICR mouse assessed as histopathological change in liver at 100 to 500 mg/kg, ip measured after 14 days by H and E staining based analysis; format: organism-based; details: in vivo, 336 h, dose 100-500 mg/kg, time 14 day
[16] = Acute toxicity in ICR mouse assessed as histopathological change in spleen at 100 to 500 mg/kg, ip measured after 14 days by H and E staining based analysis; format: organism-based; details: in vivo, 336 h, dose 100-500 mg/kg, time 14 day
[17] = Acute toxicity in ICR mouse assessed as histopathological change in brain at 100 to 500 mg/kg, ip measured after 14 days by H and E staining based analysis; format: organism-based; details: in vivo, 336 h, dose 100-500 mg/kg, time 14 day
[18] = Hepatotoxicity in IG dosed ICR mouse measured after 48 hrs; format: toxicity, organism-based; details: in vivo, po
Mus musculus [19] = test: In vivo inhibition of AChE in scopolamine treated ICR mouse assessed as reduction in AChE level in brain at 5 to 20 mg/kg, ip preadministered with scopolamine for 7 days followed by compound administration and measured after 7 days; format: functional, organism-based; details: dose 5-20 mg/kg, time 7.0 day
Mus musculus [20] = test: In vivo inhibition of BuChE in scopolamine treated ICR mouse assessed as reduction in BuChE level in brain at 20 mg/kg, ip preadministered with scopolamine for 7 days followed by compound administration and measured after 7 days; format: functional, organism-based; details: time 7.0 day
Mus musculus [21] = test: Antialzheimer activity in ip dosed amyloid beta (1 to 42 residues) induced ICR mouse model assessed as reduction in learning deficits by measuring increase in alternation performance administered daily and measured on day 12 by Y-maze test; format: functional, organism-based; details: dose 5-20 mg/kg, time 12.0 day
Mus musculus [22] = test: Antialzheimer activity in amyloid beta (1 to 42 residues) induced ICR mouse model assessed as increase in step through latency at 5 to 20 mg/kg, ip administered daily and measured on day 18 and 19 by passive avoidance test; format: functional, organism-based; details: dose 5-20 mg/kg, time 18-19 day
Mus musculus [23] = test: Antialzheimer activity in amyloid beta (1 to 42 residues) induced ICR mouse model assessed as reduction in learning deficits by measuring reduction in latency at 5 to 20 mg/kg, ip administered daily and measured for 3 days by morris water maze test; format: functional, organism-based; details: dose 5-20 mg/kg, time 3.0 day
Mus musculus [24] = test: Antialzheimer activity in amyloid beta (1 to 42 residues) induced ICR mouse model assessed as reduction in learning deficits by measuring reduction in path search distance at 5 to 20 mg/kg, ip administered daily and measured on day 4 by morris water maze test; format: functional, organism-based; details: dose 5-20 mg/kg, time 4.0 day
Mus musculus [25] = test: Antialzheimer activity in amyloid beta (1 to 42 residues) induced ICR mouse model assessed as reduction in learning deficits by measuring increase in trajectory within target quadrant at 5 to 20 mg/kg, ip administered daily and measured after 13 to 17 days by morris water maze test; format: functional, organism-based; details: dose 5-20 mg/kg, time 13-17 day
Mus musculus [26] = test: Antialzheimer activity in amyloid beta (1 to 42 residues) induced ICR mouse model assessed as reduction in learning deficits by measuring increase in duration of time spent within target quadrant at 5 to 20 mg/kg, ip administered daily and measured after 13 to 17 days by morris water maze test; format: functional, organism-based; details: dose 5-20 mg/kg, time 13-17 day
Mus musculus [27] = test: Antialzheimer activity in amyloid beta (1 to 42 residues) induced ICR mouse model assessed as reduction in learning deficits by measuring increase in distance traveled within target quadrant at 5 to 20 mg/kg, ip administered daily and measured after 13 to 17 days by morris water maze test; format: functional, organism-based; details: dose 5-20 mg/kg, time 13-17 day
Mus musculus [28] = test: Antialzheimer activity in amyloid beta (1 to 42 residues) induced ICR mouse model assessed as reduction in nerve damage by measuring increase in live neurons in hippocampal CA1 region at 5 to 20 mg/kg, ip administered daily by nissl staining based fluorescence microscopy; format: functional, organism-based; details: dose 5-20 mg/kg
Mus musculus [29] = test: Antialzheimer activity in amyloid beta (1 to 42 residues) induced ICR mouse model assessed as reduction in nerve damage by measuring increase in live neurons in hippocampal CA3 region at 20 mg/kg, ip administered daily by nissl staining based fluorescence microscopy; format: functional, organism-based

T1 sequence (P22303 whole entry): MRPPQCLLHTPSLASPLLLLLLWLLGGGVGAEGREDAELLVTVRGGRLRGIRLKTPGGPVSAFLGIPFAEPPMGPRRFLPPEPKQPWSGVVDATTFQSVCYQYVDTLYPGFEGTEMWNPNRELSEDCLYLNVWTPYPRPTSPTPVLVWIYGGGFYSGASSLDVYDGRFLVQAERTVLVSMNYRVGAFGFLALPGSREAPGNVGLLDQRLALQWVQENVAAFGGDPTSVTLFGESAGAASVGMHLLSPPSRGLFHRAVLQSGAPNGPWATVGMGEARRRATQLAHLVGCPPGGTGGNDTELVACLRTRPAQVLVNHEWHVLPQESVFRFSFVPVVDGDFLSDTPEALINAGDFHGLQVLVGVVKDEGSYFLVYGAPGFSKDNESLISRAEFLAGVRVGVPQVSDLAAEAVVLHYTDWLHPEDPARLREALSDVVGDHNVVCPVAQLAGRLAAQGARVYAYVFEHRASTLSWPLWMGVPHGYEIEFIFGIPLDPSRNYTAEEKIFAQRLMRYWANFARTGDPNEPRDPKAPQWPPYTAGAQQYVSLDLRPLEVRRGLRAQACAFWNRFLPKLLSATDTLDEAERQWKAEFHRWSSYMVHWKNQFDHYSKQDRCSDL
T2 sequence (P06276 whole entry): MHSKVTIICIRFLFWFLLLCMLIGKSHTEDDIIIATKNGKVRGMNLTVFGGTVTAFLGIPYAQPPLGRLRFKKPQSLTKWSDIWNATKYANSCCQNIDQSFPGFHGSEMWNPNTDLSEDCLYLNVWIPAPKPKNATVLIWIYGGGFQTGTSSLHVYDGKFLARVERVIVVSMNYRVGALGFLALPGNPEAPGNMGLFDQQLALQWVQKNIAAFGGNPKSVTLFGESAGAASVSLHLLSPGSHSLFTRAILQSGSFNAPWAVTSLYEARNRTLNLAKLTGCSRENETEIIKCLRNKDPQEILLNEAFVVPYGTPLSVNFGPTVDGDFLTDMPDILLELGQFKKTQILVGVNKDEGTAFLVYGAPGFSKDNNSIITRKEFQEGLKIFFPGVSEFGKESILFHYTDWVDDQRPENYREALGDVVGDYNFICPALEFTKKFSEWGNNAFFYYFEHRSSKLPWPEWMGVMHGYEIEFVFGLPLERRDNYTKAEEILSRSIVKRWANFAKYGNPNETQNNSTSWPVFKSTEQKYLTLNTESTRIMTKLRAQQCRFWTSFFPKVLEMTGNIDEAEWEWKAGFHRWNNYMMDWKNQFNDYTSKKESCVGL

Question: Which results are given for `C[C@@H](c1cccc(OC(=O)NCCCNc2c3c(nc4ccccc24)CCCC3)c1)N(C)C`?
Answer: pIC50 (Acetylcholinesterase [1]): 6.41; pIC50 (Cholinesterase [2]): 7.63

Question: Which results are given for `C[C@@H](c1cccc(OC(=O)NCCCCCCNc2c3c(nc4cc(Cl)ccc24)CCCC3)c1)N(C)C`?
Answer: pIC50 (Acetylcholinesterase [1]): 7.59; pIC50 (Cholinesterase [2]): 7.03

Question: With `C[C@@H](c1cccc(OC(=O)NCCCCCCNc2c3c(nc4cc(Br)ccc24)CCCC3)c1)N(C)C` as the compound, how does the pIC50 (Acetylcholinesterase [1]) read?
Answer: 7.25

Question: What about the pIC50 (Cholinesterase [2]) of the same compound?
Answer: 8.02

Question: Which results are given for `O=C(NCCCCCCNc1c2c(nc3cc(Br)ccc13)CCCC2)Oc1ccc2cc[nH]c2c1`?
Answer: pIC50 (Acetylcholinesterase [1]): 6.95; pIC50 (Cholinesterase [2]): 7.24

Question: Which results are given for `O=C(NCCCCCNc1c2c(nc3cc(Cl)ccc13)CCCC2)Oc1ccc(-c2cc3cccnc3[nH]2)cc1`?
Answer: pIC50 (Acetylcholinesterase [1]): 7.64; pIC50 (Cholinesterase [2]): 5.78

Question: With `Oc1ccc(/C=C/c2cc(O)cc(O)c2)cc1` [RESVERATROL] as the compound, how does the Activity (PC-12 [3]) read?
Answer: 87.3%

Question: What about the Activity (PC-12 [4]) of the same compound?
Answer: 1.4%

Question: Which results are given for `O=C(NCCCCCCNc1c2c(nc3cc(Cl)ccc13)CCCC2)Oc1ccc2cc[nH]c2c1`?
Answer: pIC50 (Acetylcholinesterase [1]): 6.82; pIC50 (Cholinesterase [2]): 7.19

Question: With `O=C(NCCCCCNc1c2c(nc3cc(Br)ccc13)CCCC2)Oc1ccc(-c2cc3cccnc3[nH]2)cc1` as the compound, how does the pIC50 (Acetylcholinesterase [1]) read?
Answer: 7.23

Question: And the pIC50 (Cholinesterase [2])?
Answer: 6.10

Question: With `O=C(NCCCCCNc1c2c(nc3ccccc13)CCCC2)Oc1ccc2cc[nH]c2c1` as the compound, how does the pIC50 (Acetylcholinesterase [1]) read?
Answer: 6.38

Question: And the pIC50 (Cholinesterase [2])?
Answer: 7.63

Question: What does the source list for `O=C(NCCCCCNc1c2c(nc3ccccc13)CCCC2)Oc1ccc(-c2cc3cccnc3[nH]2)cc1`?
Answer: pIC50 (Acetylcholinesterase [1]): 6.82; pIC50 (Cholinesterase [2]): 7.67

Question: With `C[C@@H](c1cccc(OC(=O)NCCCCCCNc2c3c(nc4ccccc24)CCCC3)c1)N(C)C` as the compound, how does the pIC50 (Acetylcholinesterase [1]) read?
Answer: 6.93

Question: What about the pIC50 (Cholinesterase [2]) of the same compound?
Answer: 7.83

Question: With `O=C(NCCCCCNc1c2c(nc3cc(Br)ccc13)CCCC2)Oc1ccc2cc[nH]c2c1` as the compound, how does the pIC50 (Acetylcholinesterase [1]) read?
Answer: 6.50

Question: What about the pIC50 (Cholinesterase [2]) of the same compound?
Answer: 7.37

Question: What does the source list for `C[C@@H](c1cccc(OC(=O)NCCCCCNc2c3c(nc4cc(Br)ccc24)CCCC3)c1)N(C)C`?
Answer: pIC50 (Acetylcholinesterase [1]): 7.32; pIC50 (Cholinesterase [2]): 7.66

Question: With `O=C(NCCCCCCNc1c2c(nc3cc(F)ccc13)CCCC2)Oc1ccc(-c2cc3cccnc3[nH]2)cc1` as the compound, how does the viability at 24 h, 10 µM [5] read?
Answer: > 90%

Question: What about the Activity (BV-2 [6]) of the same compound?
Answer: Non-Toxic

Question: What about the Activity (BV-2 [7]) of the same compound?
Answer: Active

Question: What about the Activity (PC-12 [3]) of the same compound?
Answer: 81.3%

Question: What about the Activity (PC-12 [4]) of the same compound?
Answer: 5.8%

Question: And the inhibition (PC-12 [8])?
Answer: Active

Question: And the inhibition (Acetylcholinesterase [9])?
Answer: Active

Question: And the inhibition (Cholinesterase [10])?
Answer: Active

Question: What about the Activity [11] of the same compound?
Answer: Non-Toxic

Question: And the Activity [12]?
Answer: Non-Toxic

Question: What about the Activity [13] of the same compound?
Answer: Toxic

Question: What about the Activity [14] of the same compound?
Answer: Non-Toxic

Question: And the Activity [15]?
Answer: Non-Toxic

Question: And the Activity [16]?
Answer: Non-Toxic

Question: What about the Activity [17] of the same compound?
Answer: Non-Toxic

Question: And the LD50 at 48 h [18]?
Answer: > 500 mg/kg

Question: What about the inhibition (Mus musculus [19]) of the same compound?
Answer: Active

Question: What about the inhibition (Mus musculus [20]) of the same compound?
Answer: Active

Question: And the Activity (Mus musculus [21])?
Answer: Dose-Dependent Effect

Question: And the Activity (Mus musculus [22])?
Answer: Active

Question: And the Activity (Mus musculus [23])?
Answer: Active

Question: And the Activity (Mus musculus [24])?
Answer: Active

Question: What about the Activity (Mus musculus [25]) of the same compound?
Answer: Active

Question: And the Activity (Mus musculus [26])?
Answer: Active

Question: What about the Activity (Mus musculus [27]) of the same compound?
Answer: Active

Question: And the Activity (Mus musculus [28])?
Answer: Active

Question: What about the Activity (Mus musculus [29]) of the same compound?
Answer: Active

Question: What about the pIC50 (Acetylcholinesterase [1]) of the same compound?
Answer: 7.52

Question: And the pIC50 (Cholinesterase [2])?
Answer: 7.32

Question: With `O=C(NCCCCCCNc1c2c(nc3ccccc13)CCCC2)Oc1ccc(-c2cc3cccnc3[nH]2)cc1` as the compound, how does the pIC50 (Acetylcholinesterase [1]) read?
Answer: 7.67

Question: And the pIC50 (Cholinesterase [2])?
Answer: 7.74

Question: With `C[C@@H](c1cccc(OC(=O)NCCCCNc2c3c(nc4ccccc24)CCCC3)c1)N(C)C` as the compound, how does the pIC50 (Acetylcholinesterase [1]) read?
Answer: 6.53

Question: And the pIC50 (Cholinesterase [2])?
Answer: 7.36

Question: With `O=C(NCCCNc1c2c(nc3ccccc13)CCCC2)Oc1ccc(-c2cc3cccnc3[nH]2)cc1` as the compound, how does the viability at 24 h, 10 µM [5] read?
Answer: > 90%

Question: And the pIC50 (Acetylcholinesterase [1])?
Answer: 6.63

Question: What about the pIC50 (Cholinesterase [2]) of the same compound?
Answer: 7.79

Question: Which results are given for `CCN(C)C(=O)Oc1cccc([C@H](C)N(C)C)c1`?
Answer: inhibition (Acetylcholinesterase [9]): Active; inhibition (Cholinesterase [10]): Active
